In patent US20090312407A1, “Synthetic Flavonoids and Pharmaceutical Compositions and Therapeutic Methods of Treatment of Cancer and other Pathologies” (priority 2007, published 2009):
Where “and” joins values, the source holds several entries; their conditions need not be identical. Identical values can stand only once. Entries after “also recorded” stand apart in the source; their conditions may differ. Like-named read-outs stand apart in the source and are kept apart here.

Legend:
Assay type in all cases: cell-based
MCF-7 cells = test: Cytotoxicity on MCF-7 cells; conditions: for % Inhibition / inhibition at 1 µg/mL / inhibition at 5 µg/mL / inhibition at 10 µg/mL / inhibition at 50 µg/mL: vs 2% DMSO, Table 6; for inhibition at 1 µg/mL / inhibition at 5 µg/mL / inhibition at 10 µg/mL / inhibition at 50 µg/mL: Homo sapiens; for inhibition at 1 µg/mL: MCF7, 1 μg/ml; for inhibition at 5 µg/mL: MCF7, 5 μg/ml; for inhibition at 10 µg/mL: MCF7, 10 μg/ml; for inhibition at 50 µg/mL: MCF7, 50 μg/ml; for inhibitory activity / growth inhibition compared to AZT: MCF-7 cells, same conditions as AZT; for cytotoxic activities on MCF-7 cells: different drug concentrations
PC-3 cells = test: Cytotoxicity on PC-3 cells; conditions: for inhibitory activity / growth inhibition compared to AZT: PC-3 cells, same conditions as AZT
From the text: (§1) The purified and identified analogs were subjected to in vitro biological testing.

H-9 cells = test: Cytotoxicity on H-9 cells; conditions: for Cells (×10^4) Mean / Cells (×10^4): Table 3, 12-05 to 12-09/2005; for % Inhibition / inhibition at 1 µg/mL / inhibition at 5 µg/mL / inhibition at 10 µg/mL / inhibition at 50 µg/mL: vs 2% DMSO, Table 3; for inhibitory activity / growth inhibition compared to AZT: H-9 cells, same conditions as AZT; for inhibition at 1 µg/mL / inhibition at 5 µg/mL / inhibition at 10 µg/mL / inhibition at 50 µg/mL: Homo sapiens; for inhibition at 1 µg/mL: H9, 1 μg/ml; for inhibition at 5 µg/mL: H9, 5 μg/ml; for inhibition at 10 µg/mL: H9, 10 μg/ml; for inhibition at 50 µg/mL: H9, 50 μg/ml
From the text: as §1
These three congeners were further evaluated in H9 and PC3 cells. AZT was employed as a positive control in all of these experiments.

[1] = 1 μg/ml, Table 6, 11-14 to 11-18/2005
[2] = 1 μg/ml, single count, Table 6, 11-14 to 11-18/2005
[3] = 5 μg/ml, Table 6, 11-14 to 11-18/2005
[4] = 5 μg/ml, single count, Table 6, 11-14 to 11-18/2005
[5] = 10 μg/ml, Table 6, 11-14 to 11-18/2005
[6] = 10 μg/ml, single count, Table 6, 11-14 to 11-18/2005
[7] = 50 μg/ml, Table 6, 11-14 to 11-18/2005
[8] = 50 μg/ml, single count, Table 6, 11-14 to 11-18/2005
[9] = single count, read-out: % Inhibition

Cc1cn([C@H]2C[C@H](N=[N+]=[N-])[C@@H](CO)O2)c(=O)[nH]c1=O [AZT, reference compound]
Cells (×10^4) Mean (MCF-7 cells; 1 μg/ml, Table 12, 9-12 to 9-16/2005): 45.25 ×10^4 | Cells (×10^4) (MCF-7 cells; 1 μg/ml, single count, Table 12, 9-12 to 9-16/2005): 46.0 ×10^4 and 45.3 ×10^4 and 44.5 ×10^4 | Cells (×10^4) Mean (MCF-7 cells; 5 μg/ml, Table 12, 9-12 to 9-16/2005): 28.58 ×10^4 | Cells (×10^4) (MCF-7 cells; 5 μg/ml, single count, Table 12, 9-12 to 9-16/2005): 27.8 ×10^4 and 28.0 ×10^4 | Cells (×10^4) Mean (MCF-7 cells; 10 μg/ml, Table 12, 9-12 to 9-16/2005): 20.17 ×10^4 | Cells (×10^4) (MCF-7 cells; 10 μg/ml, single count, Table 12, 9-12 to 9-16/2005): 17.5 ×10^4 and 21.5 ×10^4 | Cells (×10^4) Mean (PC-3 cells; 5 μg/ml, Table 7, 11-11 to 11-17/2005): 71.33 ×10^4 | % Inhibition (PC-3 cells; 10 μg/ml, single count, vs 2% DMSO, Table 7): 38.73%

COc1ccc(C=CC(=O)c2cc(Br)cc(Br)c2O)cc1OC (stereo in doubt) [CHBr 2M]
Cells (×10^4) Mean (MCF-7 cells; [1]): 49.08 ×10^4 | % Inhibition (MCF-7 cells; 1 μg/ml, single count): 10.95% and 18.73% | Cells (×10^4) (MCF-7 cells; [2]): 48.8 ×10^4 and 51.5 ×10^4 and 47.0 ×10^4 | Cells (×10^4) Mean (MCF-7 cells; [3]): 26.25 ×10^4 | % Inhibition (MCF-7 cells; 5 μg/ml, single count): 56.34% and 54.18% | Cells (×10^4) (MCF-7 cells; [4]): 27.0 ×10^4 and 25.3 ×10^4 and 26.5 ×10^4 | Cells (×10^4) Mean (MCF-7 cells; [5]): 7.92 ×10^4 | % Inhibition (MCF-7 cells; 10 μg/ml, single count): 84.44% and 87.03% | Cells (×10^4) (MCF-7 cells; [6]): 7.3 ×10^4 and 9.0 ×10^4 and 7.5 ×10^4 | Cells (×10^4) Mean (MCF-7 cells; [7]): 0.75 ×10^4 | % Inhibition (MCF-7 cells; 50 μg/ml, single count): 98.27% and 99.14% | Cells (×10^4) (MCF-7 cells; [8]): 0.8 ×10^4 and 1.0 ×10^4 and 0.5 ×10^4 | inhibition at 1 µg/mL (MCF-7 cells; [9]): 15.7% | inhibition at 1 µg/mL (MCF-7 cells; read-out: % Inhibition Mean): 15.1% | inhibition at 5 µg/mL (MCF-7 cells; [9]): 53.3% | inhibition at 5 µg/mL (MCF-7 cells; read-out: % Inhibition Mean): 54.6% | inhibition at 10 µg/mL (MCF-7 cells; [9]): 87.5% | inhibition at 10 µg/mL (MCF-7 cells; read-out: % Inhibition Mean): 86.3% | inhibition at 50 µg/mL (MCF-7 cells; [9]): 98.7% | inhibition at 50 µg/mL (MCF-7 cells; read-out: % Inhibition Mean): 98.7% | inhibitory activity / growth inhibition compared to AZT (MCF-7 cells): much superior; also recorded: as good or somewhat better | cytotoxic activities on MCF-7 cells (MCF-7 cells): good cytotoxic activities | inhibitory activity / growth inhibition compared to AZT (PC-3 cells): much superior; also recorded: as good or somewhat better | Cells (×10^4) Mean (H-9 cells; 1 μg/ml): 47.42 ×10^4 | % Inhibition (H-9 cells; 1 μg/ml, single count): 9.45% and 1.49% and 5.97% | Cells (×10^4) (H-9 cells; 1 μg/ml, single count): 45.5 ×10^4 and 49.5 ×10^4 and 47.3 ×10^4 | Cells (×10^4) Mean (H-9 cells; 5 μg/ml): 25.33 ×10^4 | % Inhibition (H-9 cells; 5 μg/ml, single count): 50.75% and 48.76% | Cells (×10^4) (H-9 cells; 5 μg/ml, single count): 25.5 ×10^4 and 24.8 ×10^4 and 25.8 ×10^4 | Cells (×10^4) Mean (H-9 cells; 10 μg/ml): 17.58 ×10^4 | % Inhibition (H-9 cells; 10 μg/ml, single count): 67.68% | Cells (×10^4) (H-9 cells; 10 μg/ml, single count): 18.3 ×10^4 and 16.3 ×10^4 | Cells (×10^4) Mean (H-9 cells; 50 μg/ml): 11.58 ×10^4 | % Inhibition (H-9 cells; 50 μg/ml, single count): 77.11% | Cells (×10^4) (H-9 cells; 50 μg/ml, single count): 11.8 ×10^4 and 11.5 ×10^4 | inhibitory activity / growth inhibition compared to AZT (H-9 cells): much superior; also recorded: as good or somewhat better | inhibition at 1 µg/mL (H-9 cells; read-out: % Inhibition Mean): 5.64% | inhibition at 5 µg/mL (H-9 cells; [9]): 49.2% | inhibition at 5 µg/mL (H-9 cells; read-out: % Inhibition Mean): 49.6% | inhibition at 10 µg/mL (H-9 cells; [9]): 63.7% | inhibition at 10 µg/mL (H-9 cells; read-out: % Inhibition Mean): 65% | inhibition at 50 µg/mL (H-9 cells; [9]): 76.6% | inhibition at 50 µg/mL (H-9 cells; read-out: % Inhibition Mean): 77%

COc1cc(C=CC(=O)c2cc(Cl)cc(Cl)c2O)cc(OC)c1OC [CHCl 3M]
Cells (×10^4) (MCF-7 cells; 5 μg/ml, single count, Table 17, 12-12 to 12-16/2005): 53.0 ×10^4

COc1ccc(C=CC(=O)c2cc(Cl)cc(Cl)c2O)cc1OC (stereo in doubt) [CHCl 2M]
Cells (×10^4) Mean (MCF-7 cells; [1]): 49.42 ×10^4 | % Inhibition (MCF-7 cells; 1 μg/ml, single count): 16.14% and 13.54% | Cells (×10^4) (MCF-7 cells; [2]): 49.8 ×10^4 and 48.5 ×10^4 and 50.0 ×10^4 | Cells (×10^4) Mean (MCF-7 cells; [3]): 32.33 ×10^4 | % Inhibition (MCF-7 cells; 5 μg/ml, single count): 45.53% and 42.07% | Cells (×10^4) (MCF-7 cells; [4]): 32.0 ×10^4 and 31.5 ×10^4 and 33.5 ×10^4 | Cells (×10^4) Mean (MCF-7 cells; [5]): 10.42 ×10^4 | % Inhibition (MCF-7 cells; 10 μg/ml, single count): 81.41% and 81.84% | Cells (×10^4) (MCF-7 cells; [6]): 10.0 ×10^4 and 10.8 ×10^4 and 10.5 ×10^4 | Cells (×10^4) Mean (MCF-7 cells; [7]): 0.75 ×10^4 | % Inhibition (MCF-7 cells; 50 μg/ml, single count): 99.14% | Cells (×10^4) (MCF-7 cells; [8]): 1.0 ×10^4 and 0.5 ×10^4 and 0.8 ×10^4 | inhibition at 1 µg/mL (MCF-7 cells; [9]): 14% | inhibition at 1 µg/mL (MCF-7 cells; read-out: % Inhibition Mean): 14.6% | inhibition at 5 µg/mL (MCF-7 cells; [9]): 44.7% | inhibition at 5 µg/mL (MCF-7 cells; read-out: % Inhibition Mean): 44.1% | inhibition at 10 µg/mL (MCF-7 cells; [9]): 82.7% | inhibition at 10 µg/mL (MCF-7 cells; read-out: % Inhibition Mean): 82% | inhibition at 50 µg/mL (MCF-7 cells; [9]): 98.3% | inhibition at 50 µg/mL (MCF-7 cells; read-out: % Inhibition Mean): 98.7% | inhibitory activity / growth inhibition compared to AZT (MCF-7 cells; listed as CHCI2M): much superior; also recorded: as good or somewhat better | cytotoxic activities on MCF-7 cells (MCF-7 cells): good cytotoxic activities | inhibitory activity / growth inhibition compared to AZT (PC-3 cells; listed as CHCI2M): much superior; also recorded: as good or somewhat better | Cells (×10^4) Mean (H-9 cells; 1 μg/ml): 42.25 ×10^4 | % Inhibition (H-9 cells; 1 μg/ml, single count): 15.42% | Cells (×10^4) (H-9 cells; 1 μg/ml, single count): 42.0 ×10^4 and 42.3 ×10^4 and 42.5 ×10^4 | Cells (×10^4) Mean (H-9 cells; 5 μg/ml): 24.00 ×10^4 | % Inhibition (H-9 cells; 5 μg/ml, single count): 52.74% and 51.74% | Cells (×10^4) (H-9 cells; 5 μg/ml, single count): 24.0 ×10^4 and 23.8 ×10^4 and 24.3 ×10^4 | Cells (×10^4) Mean (H-9 cells; 10 μg/ml): 12.92 ×10^4 | % Inhibition (H-9 cells; 10 μg/ml, single count): 77.11% and 71.64% | Cells (×10^4) (H-9 cells; 10 μg/ml, single count): 13.0 ×10^4 and 11.5 ×10^4 and 14.3 ×10^4 | Cells (×10^4) Mean (H-9 cells; 50 μg/ml): 4.50 ×10^4 | % Inhibition (H-9 cells; 50 μg/ml, single count): 90.05% | Cells (×10^4) (H-9 cells; 50 μg/ml, single count): 4.0 ×10^4 and 4.5 ×10^4 and 5.0 ×10^4 | inhibitory activity / growth inhibition compared to AZT (H-9 cells; listed as CHCI2M): much superior; also recorded: as good or somewhat better | inhibition at 1 µg/mL (H-9 cells; [9]): 16.4% | inhibition at 1 µg/mL (H-9 cells; read-out: % Inhibition Mean): 15.9% | inhibition at 5 µg/mL (H-9 cells; [9]): 52.2% | inhibition at 5 µg/mL (H-9 cells; read-out: % Inhibition Mean): 52.2% | inhibition at 10 µg/mL (H-9 cells; [9]): 74.1% | inhibition at 10 µg/mL (H-9 cells; read-out: % Inhibition Mean): 74.3% | inhibition at 50 µg/mL (H-9 cells; [9]): 92% | inhibition at 50 µg/mL (H-9 cells; read-out: % Inhibition Mean): 91%
